Source: patent US5525731A, “Camptothecin analogues and methods of preparation thereof” (priority 1994, dated 1996)
pIC50: −log10 of the molar value. “Also recorded” adds a separate entry of the source. Where two headings read alike, the source gives them in different places.

What was measured:
[1] = camptothecin, background; cited from earlier work
833K cells = test: Cytotoxicity, XTT assay, 833K cell growth, 72 hr exposure; type: cell-based; conditions: Homo sapiens, 72 h
Description: (§1) The synthesized compounds were evaluated for their cytotoxic effects on HL-60 (human promyelocytic leukemia) and 833K cells. The assay was conducted in 96-well microplates. The compounds were serially diluted in 4 to 6 steps with dimethylsulfoxide and added to cell incubation medium (RPMI 1640 containing 10% fetal. […]) at the final concentration of 1.0% dimethylsulfoxide in the medium. The cytotoxicity of the compounds were determined by the XTT-microculture tetrazolium assay: 2',3'-bis(2-methoxy-4-nitro-5-sulfophenyl)-3-[(phenylamino)carbonyl]-2H-tetrazolium hydroxide (XTT) was prepared at 1 mg/mL in prewarmed (37° C.) medium without serum. Phenazine methosulfate (PMS) and fresh XTT were mixed together to obtain 0.075 mM PMS-XTT solution (25 mL of the stock with 5 mg PMS added per 5 mL of 1 mg/mL XTT). Fifty microliters of this mixture were added to each well of the cell culture after 72 hours exposure to the testing compound. After incubation at 37° C. for 6 hours, the absorbance was determined at 450 nm and 630 nm with a microplate reader (EL 340, Bio-Tek Instruments, Inc., Winooski, Vt.). THe median-effect inhibitory concentration (IC50) was determined from a medium-effect plot using computer software for the purpose.
(§2) The results of the assay of cytotoxicity towards HL-60 and 833K cells of several analogues of camptothecin prepared in accord with the invention are illustrated in the accompanying Tables I and II, along with comparison data for native camptothecin. The data shown indicate that the camptothecin analogues prepared by the new methods provided by the invention have significant cytotoxic activity against cancer cells. […]

B-16 melanoma = type: in vivo, BD2 F1 mice
Description: Average body weight changes were recorded daily.
Tumor: B16 Melanoma Drug A = Camptothecin
Inoculation: 2 × 10^6 cells. S.C.
(§3) Schedule: QD × 5. I.P. started day 4

[2] = tested on: HL-60 cells (human promyelocytic leukemia); test: Cytotoxicity, XTT assay, HL-60 cell growth, 72 hr exposure; type: cell-based; conditions: for pIC50: read-out: Inhibitory Concentrations IC50
Description: as §1, §2

topoisomerase I and DNA = conditions: camptothecin, literature; cited from earlier work
topoisomerase I = conditions: camptothecin, literature; cited from earlier work
Sarcoma 180 = tested on: Sarcoma 180
Description: The control lane (Table A) indicates separate inoculation of nine mice with B-16 melanoma and sarcoma 180.
Anti-tumor activity of the newly synthesized compounds and the established drugs (as positive controls) against solid tumors (B-16 melanoma and sarcoma 180) was tested in BD2 F1 mice. Tumor (about 2.5×10^6 cells) was inoculated subcutaneously (s.c.). Treatment with the drug started on day 4 after inoculation. The drug was injected intraperitoneously (i.p) daily (QD) for five days. Control mice received the same volume (50 μl) of the solvent vehicle (Dinso) as the drug-treated animals. Tumor size was evaluated every few days using a caliper for both the control and the treated group. Average body weight changes were recorded daily. Any lethality due to high dose drug toxicity or due to tumor progression was also recorded.
as §3

[3] = B-16 melanoma, 4 mg/kg i.p. QD × 5, day 7
[4] = Table I, HL-60 (head HL-6), 72 hr, XTT
[5] = Sarcoma 180, 4 mg/kg i.p. QD × 5, day 7

SMILES: CC[C@@]1(O)C(=O)OCc2c1cc1n(c2=O)Cc2cc3ccccc3nc2-1 [Camptothecin]
- toxicity [1]: High toxicity
- pIC50 (833K cells; read-out: Inhibitory Concentrations IC50): 7.82
- IC70 (833K cells; read-out: Inhibitory Concentrations IC70): 0.043 µM
- IC95 (833K cells; read-out: Inhibitory Concentrations IC95): 0.649 µM
- AVERAGE TUMOR VOLUME (B-16 melanoma; B16 melanoma, 4 mg/kg, day 7): 0.113 CM^3
- DEATHS (D/L) (B-16 melanoma; B16 melanoma, 4 mg/kg, day 7): 0/2
- PERCENT OF CONTROL (tumor volume) (B-16 melanoma; B16 melanoma, 4 mg/kg, day 7): 59.5%
- AVERAGE TUMOR VOLUME (B-16 melanoma; B16 melanoma, 4 mg/kg, day 14): 3.500 CM^3
- AWC (average weight change) (B-16 melanoma; B16 melanoma, 4 mg/kg, day 14): +2.4 GM
- DEATHS (D/L) (B-16 melanoma; B16 melanoma, 4 mg/kg, day 14): 0/2
- PERCENT OF CONTROL (tumor volume) (B-16 melanoma; B16 melanoma, 4 mg/kg, day 14): 109.8%
- average weight loss (B-16 melanoma; B-16 melanoma, 4 mg/kg): 1.8 gm
- tumor volume decrease (B-16 melanoma; B-16 melanoma, 4 mg/kg): 40%
- AWC (average weight change) (B-16 melanoma; [3]): -1.8 gm
- Ave Tumor Volume (T/C) (B-16 melanoma; [3]): 0.595
- IC70 ([2]; Homo sapiens, HL-60, 72 h, read-out: Inhibitory Concentrations IC70, Table I, HL-60 (head HL-6), 72 hr, XTT): 0.012 µM
- IC70 ([2]; Homo sapiens, HL-60, 72 h, read-out: Inhibitory Concentrations IC70, Table II, HL-60, 72 hr, XTT): 0.012 µM
- IC95 ([2]; Homo sapiens, HL-60, 72 h, read-out: Inhibitory Concentrations IC95, Table I, HL-60 (head HL-6), 72 hr, XTT): 0.025 µM
- IC95 ([2]; Homo sapiens, HL-60, 72 h, read-out: Inhibitory Concentrations IC95, Table II, HL-60, 72 hr, XTT): 0.025 µM
- Inhibitory Concentrations IC70 [2, 4]: 0.006
- Inhibitory Concentrations IC95 [2, 4]: 0.022
- IC70 ([2]; Table II, HL-60, 72 hr, XTT, read-out: Inhibitory Concentrations IC70): 0.006 µM
- IC95 ([2]; Table II, HL-60, 72 hr, XTT, read-out: Inhibitory Concentrations IC95): 0.022 µM
- pIC50 [2, 4]: 8.46
- pIC50 ([2]; Table I, HL-60 (head HL-6), 72 hr, XTT, listed as WS-1): 8.03
- pIC50 ([2]; Table II, HL-60, 72 hr, XTT): 8.46
- pIC50 ([2]; Table II, HL-60, 72 hr, XTT, listed as WS-1): 8.03
- binding to the enzyme or DNA target in isolation (topoisomerase I and DNA): binds neither to the enzyme nor to its DNA target in isolation
- inhibition of topoisomerase I on DNA unwinding (topoisomerase I): inhibits the action of topoisomerase I on DNA unwinding; also recorded: reversible with heat, high salt concentrations and high dilution
- AWC (average weight change) (Sarcoma 180; [5]): -0.9 gm
- Ave Tumor Volume (T/C) (Sarcoma 180; [5]): 0.634
- AVERAGE TUMOR VOLUME (Sarcoma 180; Sarcoma 180, 4 mg/kg, day 7): 0.104 CM^3
- DEATHS (D/L) (Sarcoma 180; Sarcoma 180, 4 mg/kg, day 7): 0/2
- PERCENT OF CONTROL (tumor volume) (Sarcoma 180; Sarcoma 180, 4 mg/kg, day 7): 63.4%
- AVERAGE TUMOR VOLUME (Sarcoma 180; Sarcoma 180, 4 mg/kg, day 14): 0.080 CM^3
- AWC (average weight change) (Sarcoma 180; Sarcoma 180, 4 mg/kg, day 14): +0.8 GM
- DEATHS (D/L) (Sarcoma 180; Sarcoma 180, 4 mg/kg, day 14): 0/2
- PERCENT OF CONTROL (tumor volume) (Sarcoma 180; Sarcoma 180, 4 mg/kg, day 14): 39.4%
- average weight loss (Sarcoma 180; sarcoma 180, 4 mg/kg): 0.9 gm
- tumor volume decrease (Sarcoma 180; sarcoma 180, 4 mg/kg): 36%
